# Biological target: T1, binding between NRF2 and KEAP1 (Homo sapiens, UniProt Q14145)
# T1 construct: expressed in transfected cells; host or cells: HCE-T cells; each protein was expressed separately, and the two cell lysates were mixed in the well
# Assay: Measurement 1 of Nrf2 activating action (binding assay): BRET assay of inhibition of the binding between NRF2 and KEAP1
# Details: 50% binding inhibitory concentration, NanoLuc-NRF2 / KEAP1-HaloTag cell lysates
# Description: Compounds 1 to 53 produced in the Examples were used as test substances.
# The inhibitory activity of each compound on the binding between NRF2 and KEAP1 was measured by bioluminescence resonance energy transfer (BRET) assay. A plasmid having human NRF2 (Original Clone ID: ha01449s1) sequence fused with NanoLuc (19 kDa, Promega) at the N-terminal was transduced into HCE-T cells using FuGENE HD (Promega). 48 hours after transduction, the cell lysate was collected and used as an NRF2-expressing cell lysate. A plasmid having human KEAP1 (Original Clone ID: cs00328) sequence fused with HaloTag (33 kDa, Promega) at the C-terminal was transduced into HCE-T cells using FuGENE HD (Promega). After 24 hours, HaloTag Nano BRET 618 Ligand (Promega) was added to the medium. The cell lysate cultured for 24 hours after the addition was used as a KEAP1-expressing cell lysate.
# The NRF2-expressing cell lysate and the KEAP1-expressing cell lysate were adjusted so that the luminescence and fluorescence intensities per well were constant. Tables 1 and 2 show the formulation of each reaction solution.
# Each test substance at a concentration 100 times higher than the test concentration was dissolved in dimethylsulfoxide for adjustment. 49 μL of KEAP1 solution was added to a 96-well polystyrene microplate (FALCON) to which 1 μL of each test substance solution was added, followed by incubation for 15 minutes. Then, 50 μL of NRF2 solution was added to the above solution, followed by incubation for 1 hour. To measure the binding between NRF2 and KEAP1, NanoBRET Nano-Glo Substrate (Promega) diluted with Opti-Mem (Thermo Fisher Scientific) was added, followed by shaking for 30 seconds. Then, luminescence and fluorescence were measured using the GloMax Discover System (Promega). A 495-nm short pass filter and a 600-nm long pass filter were respectively used to measure donor and acceptor emission values. A value obtained by dividing the acceptor emission value by the donor emission value was regarded as BRET value. A BRET value when the compound was not added, and a BRET value when the KEAP1 solution was not added were respectively used as binding rates of 100% and 0%, and the binding rate when the compound was added was calculated. Further, using this binding rate, the 50% binding inhibitory activity concentration (IC50) was calculated from the following formula: IC50(M)=10^(LOG(A/B)×(50−C)/(D−C)+LOG(B)) • A: higher concentration out of 2 close concentrations across the inhibition rate of 50% • B: lower concentration out of 2 close concentrations across the inhibition rate of 50% • C: inhibition rate at B • D: inhibition rate at A
# T1 sequence (Q14145 whole entry): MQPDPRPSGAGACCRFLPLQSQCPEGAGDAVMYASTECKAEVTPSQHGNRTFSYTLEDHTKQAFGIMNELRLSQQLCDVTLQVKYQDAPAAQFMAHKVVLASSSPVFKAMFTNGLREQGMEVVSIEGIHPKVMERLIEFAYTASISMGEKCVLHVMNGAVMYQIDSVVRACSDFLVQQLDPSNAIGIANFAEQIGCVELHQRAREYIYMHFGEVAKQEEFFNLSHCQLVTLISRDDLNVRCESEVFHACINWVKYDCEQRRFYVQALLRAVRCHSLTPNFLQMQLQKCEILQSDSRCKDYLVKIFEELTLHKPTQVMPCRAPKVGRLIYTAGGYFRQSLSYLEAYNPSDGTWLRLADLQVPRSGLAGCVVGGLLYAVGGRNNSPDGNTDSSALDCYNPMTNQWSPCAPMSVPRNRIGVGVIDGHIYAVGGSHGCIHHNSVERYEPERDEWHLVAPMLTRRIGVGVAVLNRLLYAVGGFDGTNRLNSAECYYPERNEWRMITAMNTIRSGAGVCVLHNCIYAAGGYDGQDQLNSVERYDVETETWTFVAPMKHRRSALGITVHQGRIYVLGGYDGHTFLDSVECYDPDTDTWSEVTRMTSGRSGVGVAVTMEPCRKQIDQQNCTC
row,Structure (SMILES),IC50 [nM]
1,"CC[C@@H]1CN(Cc2cc(C(CC(=O)O)c3cc(C)c(C(=O)NC)o3)ccc2C)S(=O)(=O)c2ccccc2O1 (stereo partly drawn) [Compound 31, 3-(3-{[(R)-4-ethyl-1,1-dioxide-3,4-dihydro-2H-benzo[b][1,4,5]oxathiazepin-2-yl]methyl}-4-methylphenyl)-3-[4-methyl-5-(methylcarbamoyl)furan-2-yl]propanoic acid]",99
2,"CC[C@@H]1CN(Cc2cc(C(CC(=O)O)c3ccc(C(C)=O)o3)ccc2C)S(=O)(=O)c2ccccc2O1 (stereo partly drawn) [Compound 25, 3-(5-acetylfuran-2-yl)-3-(3-{[(R)-4-ethyl-1,1-dioxide-3,4-dihydro-2H-benzo[b][1,4,5]oxathiazepin-2-yl]methyl}-4-methylphenyl)propanoic acid]",3.8

# System: not listed separately
# Assay: Measurement of metabolic stability in human liver microsomes
# Assay type: in vitro ADME
# Details: residual ratio of test compound after 30 minutes at 37° C. with human liver microsome, LC/MS/MS
# Description: 1 mmol/L DMSO solutions of the compounds produced in the Examples were prepared. Each of the 1 mmol/L DMSO solutions was diluted with acetonitrile to 10 μmol/L, and then diluted with a 6.5 mmol/L Q-NADPH solution to 200 nmol/L. 50 μL of each solution was added to the reaction group and the non-reaction group. 50 μL of a 0.2 mg protein/mL human liver microsome (Mixed Gender, Pool of 50 livers; XenoTech, LLC) solution was added to the reaction group, followed by incubation at 37° C. for 30 minutes with shaking. After 400 μL of methanol was added to the non-reaction group, 50 μL of a 0.2 mg protein/mL human liver microsome solution was added to adjust the formulation. After incubation in the reaction group, 400 μL of methanol was added to stop the reaction. The samples of the reaction group and non-reaction group were allowed to stand at −20° C. for about 30 minutes, followed by centrifugation at 4° C. at 3000 rpm for about 10 minutes. The supernatant was analyzed using LC/MS/MS, and the residual ratio of the test compound was calculated from the peak area value of the test compound using the following formula. The measurement was carried out using the following devices: HPLC system: LC-20A-Series High Performance Liquid Chromatograph (Shimadzu Corporation) and mass spectrometer: API 4000 (AB Sciex Pte. Ltd.), or using equivalent devices. Residual ratio (%)=(peak area value of test compound in reaction group/peak area value of test compound in non-reaction group)×100 Results
row,Structure (SMILES),Metabolic stability* [%]
1,"CC[C@@H]1CN(Cc2cc(C(CC(=O)O)c3cc(C)c(C(=O)NC)o3)ccc2C)S(=O)(=O)c2ccccc2O1 (stereo partly drawn) [Compound 31, 3-(3-{[(R)-4-ethyl-1,1-dioxide-3,4-dihydro-2H-benzo[b][1,4,5]oxathiazepin-2-yl]methyl}-4-methylphenyl)-3-[4-methyl-5-(methylcarbamoyl)furan-2-yl]propanoic acid]",77
2,"CC[C@@H]1CN(Cc2cc(C(CC(=O)O)c3cc(C)c(C(C)=O)s3)ccc2C)S(=O)(=O)c2ccccc2O1 (stereo partly drawn) [Compound 7, 3-(5-acetyl-4-methylthiophen-2-yl)-3-(3-{[(R)-4-ethyl-1,1-dioxide-3,4-dihydro-2H-benzo[b][1,4,5]oxathiazepin-2-yl]methyl}-4-methylphenyl)propanoic acid]",30
3,"CC[C@@H]1CN(Cc2cc(C(c3cc(F)c(C(C)=O)s3)C(C)C(=O)O)ccc2C)S(=O)(=O)c2cnccc2O1 (stereo partly drawn) [Compound 52, 3-(5-acetyl-4-fluorothiophen-2-yl)-3-(3-{[(R)-4-ethyl-1,1-dioxide-3,4-dihydro-2H-pyrido[4,3-b][1,4,5]oxathiazepin-2-yl]methyl}-4-methylphenyl)-2-methylpropanoic acid]",53
4,"CC[C@@H]1CN(Cc2cc(C(CC(=O)O)c3ccc(C#N)s3)ccc2C)S(=O)(=O)c2ccccc2O1 (stereo partly drawn) [Compound 19, 3-(5-cyanothiophen-2-yl)-3-(3-{[(R)-4-ethyl-1,1-dioxide-3,4-dihydro-2H-benzo[b][1,4,5]oxathiazepin-2-yl]methyl}-4-methylphenyl)propanoic acid]",23
5,"CC[C@@H]1CN(Cc2cc(C(CC(=O)O)c3ccc(C(C)=O)o3)ccc2C)S(=O)(=O)c2ccccc2O1 (stereo partly drawn) [Compound 25, 3-(5-acetylfuran-2-yl)-3-(3-{[(R)-4-ethyl-1,1-dioxide-3,4-dihydro-2H-benzo[b][1,4,5]oxathiazepin-2-yl]methyl}-4-methylphenyl)propanoic acid]",72
6,"CC[C@@H]1CN(Cc2cc(C(CC(=O)O)c3sc(C(C)=O)cc3C)ccc2C)S(=O)(=O)c2ccccc2O1 (stereo partly drawn) [Compound 14, 3-(5-acetyl-3-methylthiophen-2-yl)-3-(3-{[(R)-4-ethyl-1,1-dioxide-3,4-dihydro-2H-benzo[b][1,4,5]oxathiazepin-2-yl]methyl}-4-methylphenyl)propanoic acid]",25
7,"CC[C@@H]1CN(Cc2cc(C(CC(=O)O)c3ccc(C(N)=O)s3)ccc2C)S(=O)(=O)c2ccccc2O1 (stereo partly drawn) [Compound 23, 3-(5-carbamoylthiophen-2-yl)-3-(3-{[(R)-4-ethyl-1,1-dioxide-3,4-dihydro-2H-benzo[b][1,4,5]oxathiazepin-2-yl]methyl}-4-methylphenyl)propanoic acid]",75
8,"CC(=O)c1ccc(C(c2ccc(C)c(CN3C[C@@H](C)Oc4ccccc4S3(=O)=O)c2)C(C)(C)C(=O)O)s1 (stereo partly drawn) [Compound 12, 3-(5-acetylthiophen-2-yl)-2,2-dimethyl-3-(4-methyl-3-{[(R)-4-methyl-1,1-dioxide-3,4-dihydro-2H-benzo[b][1,4,5]oxathiazepin-2-yl]methyl}phenyl)propanoic acid]",56
9,"CC[C@@H]1CN(Cc2cc(C(CC(=O)O)c3cccs3)ccc2C)S(=O)(=O)c2ccccc2O1 (stereo partly drawn) [Compound 17, 3-(3-{[(R)-4-ethyl-1,1-dioxide-3,4-dihydro-2H-benzo[b][1,4,5]oxathiazepin-2-yl]methyl}-4-methylphenyl)-3-(thiophen-2-yl)propanoic acid]",36
10,"CC[C@@H]1CN(Cc2cc(C(c3ccc(C(C)=O)s3)C(C)(C)C(=O)O)ccc2C)S(=O)(=O)c2ccccc2O1 (stereo partly drawn) [Compound 6, 3-(5-acetylthiophen-2-yl)-3-(3-{[(R)-4-ethyl-1,1-dioxide-3,4-dihydro-2H-benzo[b][1,4,5]oxathiazepin-2-yl]methyl}-4-methylphenyl)-2,2-dimethylpropanoic acid]",32
11,"CC[C@@H]1CN(Cc2cc(C(CC(=O)O)c3csc(C(=O)NC)c3)ccc2C)S(=O)(=O)c2ccccc2O1 (stereo partly drawn) [Compound 22, 3-(3-{[(R)-4-ethyl-1,1-dioxide-3,4-dihydro-2H-benzo[b][1,4,5]oxathiazepin-2-yl]methyl}-4-methylphenyl)-3-[5-(methylcarbamoyl)thiophen-3-yl]propanoic acid]",77
12,"CC[C@@H]1CN(Cc2cc(C(CC(=O)O)c3cc(F)c(C(C)=O)s3)ccc2C)S(=O)(=O)c2ccccc2O1 (stereo partly drawn) [Compound 8, 3-(5-acetyl-4-fluorothiophen-2-yl)-3-(3-{[(R)-4-ethyl-1,1-dioxide-3,4-dihydro-2H-benzo[b][1,4,5]oxathiazepin-2-yl]methyl}-4-methylphenyl)propanoic acid]",36
13,"CC[C@@H]1CN(Cc2cc(C(CC(=O)O)c3csc(C(C)=O)c3)ccc2C)S(=O)(=O)c2ccccc2O1 (stereo partly drawn) [Compound 15, 3-(5-acetylthiophen-3-yl)-3-(3-{[(R)-4-ethyl-1,1-dioxide-3,4-dihydro-2H-benzo[b][1,4,5]oxathiazepin-2-yl]methyl}-4-methylphenyl)propanoic acid]",47
14,"CC[C@@H]1CN(Cc2cc(C(CC(=O)O)c3ccc(C(C)=O)s3)ccc2C)S(=O)(=O)c2ccccc2O1 (stereo partly drawn) [Compound 5, 3-(5-acetylthiophen-2-yl)-3-(3-{[(R)-4-ethyl-1,1-dioxide-3,4-dihydro-2H-benzo[b][1,4,5]oxathiazepin-2-yl]methyl}-4-methylphenyl)propanoic acid]",53
15,"CC[C@@H]1CN(Cc2cc(C(CC(=O)O)c3ccc(C(=O)NC)s3)ccc2C)S(=O)(=O)c2ccccc2O1 (stereo partly drawn) [Compound 21, 3-(3-{[(R)-4-ethyl-1,1-dioxide-3,4-dihydro-2H-benzo[b][1,4,5]oxathiazepin-2-yl]methyl}-4-methylphenyl)-3-[5-(methylcarbamoyl)thiophen-2-yl]propanoic acid]",74
16,"CC[C@@H]1CN(Cc2cc(C(c3ccc(C(C)=O)s3)C(C)(C)C(=O)O)ccc2C)S(=O)(=O)c2c(F)cccc2O1 (stereo partly drawn) [Compound 9, 3-(5-acetylthiophen-2-yl)-3-(3-{[(R)-4-ethyl-9-fluoro-1,1-dioxide-3,4-dihydro-2H-benzo[b][1,4,5]oxathiazepin-2-yl]methyl}-4-methylphenyl)-2,2-dimethylpropanoic acid]",38
17,"CC[C@@H]1CN(Cc2cc(C(c3cc(F)c(C(C)=O)s3)C(C)(C)C(=O)O)ccc2C)S(=O)(=O)c2ccccc2O1 (stereo partly drawn) [Compound 11, 3-(5-acetyl-4-fluorothiophen-2-yl)-3-(3-{[(R)-4-ethyl-1,1-dioxide-3,4-dihydro-2H-benzo[b][1,4,5]oxathiazepin-2-yl]methyl}-4-methylphenyl)-2,2-dimethylpropanoic acid]",27
18,"CC[C@@H]1CN(Cc2cc(C(CC(=O)O)c3cc(C(C)=O)cs3)ccc2C)S(=O)(=O)c2ccccc2O1 (stereo partly drawn) [Compound 10, 3-(4-acetylthiophen-2-yl)-3-(3-{[(R)-4-ethyl-1,1-dioxide-3,4-dihydro-2H-benzo[b][1,4,5]oxathiazepin-2-yl]methyl}-4-methylphenyl)propanoic acid]",39

# From US12552757B2, “NRF2-activating compound” (SENJU PHARMACEUTICAL CO., LTD., priority 2019, dated 2026)
